Reference: patent US20240398899A1 (priority 2021, published 2024)

Tests used:
Assay type in all cases: cell-based, human
SH-SY5Y neuronal cells [1] = assay: Mitochondrial membrane potential against MPP+ iodide damage, JC-1 assay; details: MPP+ iodide 1 mM; for Mitochondrial membrane potential: red/green fluorescence ratio
Experimental: The plated cells were incubated overnight in 5% CO2 incubator at 37° C. After 24 h, cells were treated with concentrations of recombinant lectin protein having SEQ ID NO: 1 ranging from 1 μg/ml-50 μg/ml for 24 h. After 24 h of treatment, cells were exposed to damage (MPP+ iodide 1 mM) for 24 h. […] Untreated cells were included as control. Cells treated with Deprenyl served as positive control. After MPP+ iodide exposure, the protective effect of recombinant lectin protein having SEQ ID NO: 1 on mitochondrial membrane potential was assessed by JC-1 assay as follows; after incubation, the supernatants were discarded and 100 μl of JC1-dye solution (prepared by diluting 1 mM DMSO stock in to 10 μM in 1×PBS) was added to each well. The cells were then incubated with the dye in CO2 incubator at 37° C. for 15 min. After 15 min of incubation, the supernatant was removed, and the cells were washed twice with 1×PBS (phosphate buffer saline). 100 μl of 1×PBS was finally added to each well. Red fluorescence (excitation 550 nm, emission 600 nm) and green fluorescence (excitation 485 nm, emission 535 nm) were measured using Biotek Synergy HT plate reader. The mitochondrial membrane potential (Δψm) was calculated as the ratio of intensity of red fluorescence to intensity of green fluorescence described as follows: • Δψm=Intensity of red fluorescence/Intensity of green fluorescence • The percentage increase/restoration in Mitochondrial Membrane Potential against MPP+ iodide damage was calculated as:
[formula] • Where X=Δψm corresponding to SEQ ID NO: 1+ MPP+ iodide treated cells • R=Δψm corresponding to control cells (MPP+ iodide damage alone)

SH-SY5Y neuronal cells [2] = assay: Sub (G0/G1) cell population by PI cell cycle assay against MPP+ iodide damage; details: MPP + Iodide (2 mM); for % Decrease in Apoptotic cells (wrt MPP + iodide): SubG0/G1
Experimental: After incubation as in Example 2a and 2b, cells were harvested by trypsinization and processed for Cell cycle assay as follows: Cell cycle reagent contains PI stain, which stains DNA of cells in different phases of cell cycle; Sub (G0/G1), G1, S, G2 and M. Cells in Sub (G0/G1) phase correspond to apoptotic cells.
Cells were gently harvested into pre-labelled centrifuge tubes and centrifuged at 450 g for 5 min, RT (low brake). The supernatants were removed carefully and discarded. 1 ml of 1×PBS was added to the pellet and resuspended gently to make homogenous suspension. Cells were centrifuged at 450 g for 5 min, RT (low brake). The supernatant was carefully removed leaving behind approximately 100 μl of PBS. Cells were resuspended gently yet thoroughly in residual PBS. The cells were fixed by adding Ice-cold 70% ethanol (100 μl) added dropwise into cells in each tube while vortexing at low speed Cells were stored at 4° C. for 24 h prior to staining.
Ethanol fixed cells were centrifuged at 450 g for 5 min, RT (low brake) the supernatant was carefully removed (not to touch the pellet) and discarded. 1 ml of 1×PBS was added into pellet and resuspended gently. Cells were incubated for 1 minute at RT. Cells were centrifuged at 450 g for 5 min, RT (low brake). (washing step) The supernatant was removed carefully leaving behind approx. 20 μl-50 μl of PBS. 200 μl of Cell Cycle reagent was added into each tube. Cells were resuspended gently and mixed. Cells were incubated for 30 min, RT, Dark. The stained samples were transferred into 96-well plates and acquired on flow cytometer (Guava technologies). Percentage of cells in Sub (G0/G1) phase were determined.
Percent inhibition in apoptotic cells=[(% Sub(G0/G1)cells in MPP+iodide alone) −(% Sub(G0/G1)cells in SEQ ID NO:1+MPP+iodide)/% Sub(G0/G1)cells in MPP+iodide alone]*100

SH-SY5Y neuronal cells [3] = assay: Annexin-V staining of apoptotic cells against MPP+ iodide damage; details: MPP+ iodide 1 mM; for % Decrease in Apoptotic cells (wrt MPP + iodide): Annexin
Experimental: After 24 h of treatment, cells were exposed to damage (MPP+ iodide 1 mM) for 24 h. […] Untreated cells were included as control. Cells treated with Deprenyl served as positive control. After treatment, cells were harvested by trypsinization and processed for Annexin V assay as follows: Cell were gently harvested into pre-labeled sterile centrifuge tubes and centrifuged at 300×g for 5-7 min. After 24 h of treatment, cells were exposed to damage (MPP+ iodide 1 mM) for 24 h. Cells treated with MPP+ iodide alone were included as Control. Untreated cells were included as negative control. Cells treated with Deprenyl served as positive control. After treatment, cells were harvested by trypsinization and processed for Annexin V assay as follows: Cell were gently harvested into pre-labelled sterile centrifuge tubes and centrifuged at 300×g for 5-7 min. Supernatant were discarded and the pellet was resuspended in 200 μl of fresh culture medium. 100 μl of cell suspension was transferred into pre-labeled sterile centrifuge tubes. 100 μl of Annexin-V reagent was added to each tube and incubated for 30 min at RT in dark. Cells stained for Annexin-V were then transferred into 96-well plates and acquired on flow cytometer (Guava technologies). Percentage of Annexin-V positive cells was determined.
Percent inhibition in apoptotic cells=[(% Annexin positive cells in MPP+iodide alone)−(% Annexin positive cells in Recombinant Lectin having SEQ ID NO:1+MPP+iodide)/% Annexin positive cells in MPP+iodide alone]*100

C#CCN(C)[C@H](C)Cc1ccccc1 [Deprenyl, reference compound]
% Increase in Mitochondrial potential (w.r.t. control) (SH-SY5Y neuronal cells [1]; 1 μM): 58.2%
Mitochondrial membrane potential (SH-SY5Y neuronal cells [1]; 1 μM): 2.9
% Increase in Mitochondrial potential (w.r.t. control) (SH-SY5Y neuronal cells [1]; 10 μM): 67.9%
Mitochondrial membrane potential (SH-SY5Y neuronal cells [1]; 10 μM): 3.1
% Increase in Mitochondrial potential (w.r.t. control) (SH-SY5Y neuronal cells [1]; 25 μM): 95.3%
Mitochondrial membrane potential (SH-SY5Y neuronal cells [1]; 25 μM): 3.6
% Increase in Mitochondrial potential (w.r.t. control) (SH-SY5Y neuronal cells [1]; 50 μM): 79.6%
Mitochondrial membrane potential (SH-SY5Y neuronal cells [1]; 50 μM): 3.3
% Increase in Mitochondrial potential (w.r.t. control) (SH-SY5Y neuronal cells [1]; 100 μM): 39.9%
Mitochondrial membrane potential (SH-SY5Y neuronal cells [1]; 100 μM): 2.6
% Apoptotic cells (SubG0/G1) (SH-SY5Y neuronal cells [2]; 10 μM): 2.9%
% Decrease in Apoptotic cells (wrt MPP + iodide) (SH-SY5Y neuronal cells [2]; 10 μM): 12.8%
% Apoptotic cells (SubG0/G1) (SH-SY5Y neuronal cells [2]; 25 μM): 2.4%
% Decrease in Apoptotic cells (wrt MPP + iodide) (SH-SY5Y neuronal cells [2]; 25 μM): 28.3%
% Apoptotic cells (SubG0/G1) (SH-SY5Y neuronal cells [2]; 100 μM): 2%
% Decrease in Apoptotic cells (wrt MPP + iodide) (SH-SY5Y neuronal cells [2]; 100 μM): 42%
% Apoptotic cells (Anenxin + ve) (SH-SY5Y neuronal cells [3]; 10 μM): 3%
% Decrease in Apoptotic cells (wrt MPP + iodide) (SH-SY5Y neuronal cells [3]; 10 μM): 27.2%
% Apoptotic cells (Anenxin + ve) (SH-SY5Y neuronal cells [3]; 25 μM): 2.5%
% Decrease in Apoptotic cells (wrt MPP + iodide) (SH-SY5Y neuronal cells [3]; 25 μM): 38.3%
% Apoptotic cells (Anenxin + ve) (SH-SY5Y neuronal cells [3]; 100 μM): 2.9%
% Decrease in Apoptotic cells (wrt MPP + iodide) (SH-SY5Y neuronal cells [3]; 100 μM): 28.4%
